In ChEMBL document CHEMBL1201862, “PubChem BioAssay data set” (2004):
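Each compound was tested at five concentrations against cells in 96-well plates for 48 hours. GI50 is the concentration that inhibits growth by half.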 The source made the active and inactive calls. Rule as the data show it: active = GI50 up to about 1.1 µM and inactive = higher.

Legend:
Test in all cases: NCI anticancer screen, dose series, 48 h
SNB-75 = system: SNB-75
SNB-78 = system: SNB-78
SF-539 = system: SF-539
HCT-116 = system: HCT-116
MCF7 = system: MCF7
RXF 393 = system: RXF 393
M19-MEL = system: M19-MEL
EKVX = system: EKVX
DMS-114 = system: DMS-114
UO-31 = system: UO-31
KM-20L2 = system: KM-20L2
NCI/ADR-RES = system: NCI/ADR-RES
XF498 = system: XF498
KM12 = system: KM12
UACC-62 = system: UACC-62
LOX IMVI = system: LOX IMVI
A498 = system: A498

Measured: GI50

COc1nc(SC)nc2c1cnn2C1OC(C(O)CO)C(OC)C1O (stereo unspecified)
inactive: SNB-75 48.4 µM | SNB-78 > 85.9 µM | SF-539 > 100 µM | HCT-116 78.2 µM | MCF7 > 62.4 µM | RXF 393 > 83.2 µM | M19-MEL > 75.5 µM | EKVX > 100 µM | DMS-114 > 80 µM | UO-31 34.9 µM | KM-20L2 > 85.9 µM | NCI/ADR-RES > 100 µM | XF498 > 100 µM | KM12 > 78.9 µM | UACC-62 > 65.6 µM | LOX IMVI > 100 µM | A498 > 100 µM

O=C(NN1C(=O)CS(=O)(=O)C1c1ccc(Cl)c(Cl)c1)c1ccncc1 (stereo unspecified)
inactive: SNB-75 54.2 µM | SNB-78 > 93.1 µM | SF-539 > 100 µM | HCT-116 > 87.7 µM | MCF7 98.2 µM | RXF 393 > 69 µM | M19-MEL > 100 µM | EKVX > 74 µM | DMS-114 61.2 µM | UO-31 > 100 µM | KM-20L2 > 91.4 µM | NCI/ADR-RES > 92.7 µM | XF498 > 100 µM | KM12 > 100 µM | UACC-62 > 100 µM | LOX IMVI > 95.9 µM | A498 > 90.4 µM

C[N+](C)([O-])CCOc1cc2c(c3ccccc13)-c1ccccc1C2=O
inactive: SNB-75 17.5 µM | SNB-78 19.8 µM | SF-539 15.1 µM | HCT-116 6.25 µM | MCF7 11.7 µM | RXF 393 17.7 µM | M19-MEL 15.1 µM | EKVX 25.9 µM | DMS-114 7.83 µM | UO-31 17.8 µM | KM-20L2 20.1 µM | NCI/ADR-RES 14.3 µM | XF498 16.4 µM | KM12 13.6 µM | UACC-62 14.4 µM | LOX IMVI 4.31 µM | A498 20.3 µM
